# Source: patent publication US20070212677A1, “Identifying off-target effects and hidden phenotypes of drugs in human cells” (Odyssey Thera, Inc., priority 2004, published 2007)
# “Also recorded” adds a separate entry of the source. Non-standard residues stand in square brackets, D forms with d. Residues, ends and D or L forms follow the SMILES beside them. Nle = CCCC[C@H](N)C(=O)O
# Legend:
# PPAR-gamma:SRC-1 = biological target: T1, PPAR-gamma:SRC-1 (Homo sapiens, UniProt P37231); test: PPAR-gamma:SRC-1 PCA; format: cell-based; conditions: serum-starved HEK293; for effect on PPAR-gamma:SRC-1 PCA: drug 6.5 hours prior to rosiglitazone 1.5 hours, FIG. 24B, C
# T1 sequence (P37231 1-477 isoform P37231-2): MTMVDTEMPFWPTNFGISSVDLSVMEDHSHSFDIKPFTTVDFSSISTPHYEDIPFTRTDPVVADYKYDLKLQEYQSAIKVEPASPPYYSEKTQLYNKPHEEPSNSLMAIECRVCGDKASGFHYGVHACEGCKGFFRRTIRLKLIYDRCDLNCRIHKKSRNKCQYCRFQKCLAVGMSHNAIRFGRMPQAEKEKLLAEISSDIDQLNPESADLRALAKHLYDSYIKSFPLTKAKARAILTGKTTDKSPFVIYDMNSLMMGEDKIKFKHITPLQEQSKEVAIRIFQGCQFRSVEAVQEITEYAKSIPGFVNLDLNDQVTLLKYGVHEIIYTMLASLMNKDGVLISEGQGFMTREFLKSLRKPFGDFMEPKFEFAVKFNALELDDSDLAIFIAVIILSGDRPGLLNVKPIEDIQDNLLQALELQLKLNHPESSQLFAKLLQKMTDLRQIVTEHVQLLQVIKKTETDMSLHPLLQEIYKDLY
# Cofilin:Limk2 = Cofilin:Limk2 PCA; conditions: drug treatment, HEK293
# Akt1:Pdk1 = Akt1:Pdk1 PCA; conditions: for Akt:Pdk1 complexes: 90 and 480 minutes after treatment
# Description: (§4) For example, we monitored drug activity on growth factor-mediated signal transduction pathways involving protein kinase B (Akt) by assessing the complex between Akt1 and phosphatidylinositol-3-dependent kinase (Pdk1). We also monitored complexes containing Akt1 and the cyclin-dependent kinase inhibitor, p27 (CDKN1B; kip1), which reports on cell cycle regulatory processes.
# Akt1:p27 = Akt1:p27 PCA; conditions: for Akt:p27 complexes: 90 and 480 minutes after treatment
# Description: as §4
# Pin1:Jun = Pin1:Jun PCA; format: cell-based, human; conditions: for effect on Pin1:Jun assay: statins, FIG. 19B
# CDKN1A(p21):Cdc2 = test: Cdc2:p21 PCA; conditions: statins
# H-Ras:Raf-1 = H-Ras:Raf-1 PCA; format: cell-based, human; conditions: drug treatment, HEK293
# MAPK1:MKNK1 = test: Mknk1:Mapk1 PCA; conditions: 480 minutes; bar 27
# beta-Arr2:beta2AR = beta-Arr2:beta2AR (Homo sapiens, UniProt P07550); test: beta-Arr2:beta2AR PCA (with or without ISO); format: cell-based
# ELK: MAPK1 = test: Elk1:Mapk1 PCA; conditions: 480 minutes; FIG. 17 bar 20
# cyclinD1:Cdk4 = test: CyclinD1:Cdk4 PCA; format: cell-based, human; conditions: eight hours of treatment
# phospho-Hsp27 = phospho-Hsp27 immunofluorescence, high-content imaging in HEK293 cells; format: cell-based, human; conditions: for EGF-induced Hsp27 phosphorylation: drug 90 min, hEGF during last 5 min
# Protocol: (§1) We assessed the effects of the above-mentioned compounds on the three pathways and used the results to construct pharmacological profiles for the agents. Human cells (HEK293) were treated with drugs and the phosphorylation status of the three downstream proteins was assessed in the absence or presence of epidermal growth factor (EGF). Cells were then fixed and probed with antisera generated against the phosphorylated forms of CREB (S133), ERK1/2 (phospho T*EY*), or phospho Hsp27 (S78/S82). The ERK1/2 antibodies specifically recognize the MAPK/ERK1 and MAPK/ERK2 protein kinases only when they are phosphorylated on Threonine 202 and Tyrosine 204 in the activation loop. […] Changes in the level and sub-cellular localization of a phosphorylated protein following treatment with a drug would indicate a functional connection between the drug and the pathway of interest.
# (§2) Details of the methods used are as follows. HEK293T cells were seeded in black-walled, poly-lysine coated 96-well plates (Greiner) at a density of 30,000/well. After 24 hours, cells in duplicate wells were treated with combinations of different drugs and stimulus as follows: (a) 20 micromolar PD98059, micromolar SB203580, or vehicle alone for 90 minutes; and (b) as for (a), but with 100 ng/ml hEGF added to the cells during the last 5 min of drug treatment. The drugs were purchased from Calbiochem and hEGF was from Roche. Four sets of cells treated as described were prepared. The cells were rinsed once with PBS and fixed with 4% formaldehyde for 10 min. The cells were subsequently permeabilized with 0.25% Triton X-100 in PBS and incubated with 3% BSA for 30 min to block non-specific antibody binding. […]
# (§3) Images were acquired using a Discovery-1 High Content Imaging System (Molecular Devices). Background fluorescence due to nonspecific binding by the secondary antibody was established with the use of cells that were incubated with BSA/PBS and without primary antibodies. […]
# phospho-ERK = phospho-ERK (T202/Y204) immunofluorescence, high-content imaging in HEK293 cells; format: cell-based, human; conditions: for EGF-stimulated ERK phosphorylation: drug 90 min, hEGF during last 5 min
# Protocol: as §1, §2, §3
# phospho-CREB = phospho-CREB (Ser133) immunofluorescence, high-content imaging in HEK293 cells; format: cell-based, human
# Protocol: as §1
# Details of the methods used are as follows. HEK293T cells were seeded in black-walled, poly-lysine coated 96-well plates (Greiner) at a density of 30,000/well. […]
# as §3
compound,measurement,setting,value
COc1cc2ncnc(Nc3cccc(Br)c3)c2cc1OC [PD 153035],effect on PPAR-gamma:SRC-1 PCA,PPAR-gamma:SRC-1,no appreciable effects
indirubin-3′-monoxime,Limk2:cofilin complexes,Cofilin:Limk2,almost completely eliminated
same,Akt:Pdk1 complexes,Akt1:Pdk1,negatively regulated
same,Akt:p27 complexes,Akt1:p27,negatively regulated
CC(C)n1c(/C=C/C(O)CC(O)CC(=O)O)c(-c2ccc(F)cc2)c2ccccc21 (stereo not drawn) [fluvastatin],effect on Pin1:Jun assay,Pin1:Jun,pronounced inhibitory activity; also recorded: inhibited
CC(C)c1nc(N(C)S(C)(=O)=O)nc(-c2ccc(F)cc2)c1/C=C/[C@@H](O)C[C@@H](O)CC(=O)O [rosuvastatin],activity on CDKN1A(p21):Cdc2 assay,CDKN1A(p21):Cdc2,activity opposite from the other statins
same,effect on Pin1:Jun assay,Pin1:Jun,little activity
CN(CCOc1ccc(C[C@H](Nc2ccccc2C(=O)c2ccccc2)C(=O)O)cc1)c1ccccn1 [GW1929],effect on Pin1/Jun PCA,"Pin1:Jun; PPARγ ligands, 480 minutes, FIG. 18",strong stimulation; also recorded: had an effect
Cc1ccc(S(=O)(=O)/C=C/C#N)cc1 [BAY 11-7082],total Akt:Pdk1 complexes,Akt1:Pdk1; HEK293,not
same,HRas:Raf1 complex,H-Ras:Raf-1,inhibited
same,nuclear Akt:p27 complexes,Akt1:p27; HEK293,strongly inhibited
"C=CCNC1=C2C[C@@H](C)C[C@H](OC)[C@H](O)[C@@H](C)/C=C(\C)[C@H](OC(N)=O)[C@@H](OC)/C=C\C=C(/C)C(=O)NC(=CC1=O)C2=O [17-AAG, 17-(allylamino)-17-demethoxygeldanamycin]",Akt:Pdk1 complexes,Akt1:Pdk1,negatively regulated
same,Akt:p27 complexes,Akt1:p27,negatively regulated
"TRAIL: protein cytokine, a TNF-alpha-family ligand",MAPK1:MKNK1 assay,MAPK1:MKNK1,strongly induced
same,activity on adrenergic GPCR assays,"beta-Arr2:beta2AR; 480 minutes, FIG. 17 bars 3 & 4",no activity
same,ELK: MAPK1 assay,ELK: MAPK1,strongly induced
CCCC[C@@H](C=O)NC(=O)[C@H](CC(C)C)NC(=O)[C@H](CC(C)C)NC(C)=O [ALLN] (Ac-Leu-Leu-[Nle]-aldehyde),cyclinD1:Cdk4 complexes,cyclinD1:Cdk4,accumulation of this complex in the nucleus
"C[S+]([O-])c1ccc(-c2nc(-c3ccc(F)cc3)c(-c3ccncc3)[nH]2)cc1 (stereo not drawn) [SB203580, 4-(4-fluorophenyl)-2-(4-methylsulfinylphenyl)-5-(4-pyridyl)1H-imidazole]",EGF-induced Hsp27 phosphorylation,phospho-Hsp27,blocked
same,EGF-stimulated ERK phosphorylation,phospho-ERK,no effect
CC(C)(C)n1nc(-c2ccc(Cl)cc2)c2c(N)ncnc21 [PP2],increase of PPAR-gamma:SRC-1 complex,"PPAR-gamma:SRC-1; drug 10 micromolar 6.5 hours prior to rosiglitazone 1.5 hours, p<0.0001 vs DMSO",5 fold
same,effect on PPAR-gamma:SRC-1 PCA,PPAR-gamma:SRC-1,comparable to c-src siRNA
CC(C)C[C@H](NC(=O)c1ccc(NCc2cnc[nH]2)cc1-c1cccc2ccccc12)C(=O)O [GGTI-2133],effect on βArr2:β2AR assay following isoproterenol stimulation,"beta-Arr2:beta2AR; FIG. 19A, 2 μM ISO 30 min",no effect
EGF: epidermal growth factor; hEGF from Roche,phospho-Hsp27,"phospho-Hsp27; 100 ng/ml hEGF, 5 min",increased
same,ERK/MAP kinase phosphorylation,"phospho-ERK; 100 ng/ml hEGF, 5 min",highly induced
same,formation of phospho-CREB,"phospho-CREB; 100 ng/ml hEGF, 5 min",induced
Nc1ncnc2c1cnn2-c1ccccc1 [PP3],effect on PPAR-gamma:SRC-1 PCA,PPAR-gamma:SRC-1,did not mimic
COc1cccc(-c2cc(=O)c3ccccc3o2)c1N [PD98059],EGF-induced Hsp27 phosphorylation,phospho-Hsp27,no effect
same,effect on PPAR-gamma:SRC-1 PCA,PPAR-gamma:SRC-1,no appreciable effects
same,EGF-stimulated ERK phosphorylation,phospho-ERK,significantly blocked
same,effect of EGF on phospho-CREB in presence of drug,"phospho-CREB; 20 micromolar PD98059 90 min, hEGF during last 5 min",reduced
